Non-standard residues stand in square brackets, D forms with d. Residues, ends and D or L forms follow the SMILES beside them. Arg(Me) = CNC(=N)NCCC[C@H](N)C(=O)O; d3Pal = N[C@H](Cc1cccnc1)C(=O)O; d4Pal = N[C@H](Cc1ccncc1)C(=O)O; azaGly = NNC(=O)O
Experiments:
Type in all cases: functional, Homo sapiens
Parameters in all cases: dose or concentration left out as unconfirmed
Colon cancer organoid [1] = assay: Identification of compartment-specific drug sensitivities in O06 CRC organoid-stroma F06 CAF co-cultures. Organoid is transduced with Lucferase2-P2A-EGFP lentivirus, fibroblast with Renilla-dsRed lentivirus. Dual-Glo Luciferase assay is used to report viability data.
Colon cancer organoid [2] = assay: Identification of compartment-specific drug sensitivities in O14 CRC organoid-stroma F14 CAF co-cultures. Organoid is transduced with Lucferase2-P2A-EGFP lentivirus, fibroblast with Renilla-dsRed lentivirus. Dual-Glo Luciferase assay is used to report viability data.
Colon cancer organoid [3] = assay: Identification of compartment-specific drug sensitivities in O20 CRC organoid-stroma F20 CAF co-cultures. Organoid is transduced with Lucferase2-P2A-EGFP lentivirus, fibroblast with Renilla-dsRed lentivirus. Dual-Glo Luciferase assay is used to report viability data.
[4] = Transduced with Lucferase2-P2A-EGFP lentivirus
[5] = Transduced with Renilla-dsRed lentivirus

Structure (SMILES) | Cell Viability (Colon cancer organoid [1]; [4]) | Cell Viability (Colon cancer organoid [1]; [5]) | Cell Viability (Colon cancer organoid [2]; [4]) | Cell Viability (Colon cancer organoid [2]; [5]) | Cell Viability (Colon cancer organoid [3]; [4]) | Cell Viability (Colon cancer organoid [3]; [5])
C[C@@H](Oc1cc(-n2cnc3ccc(CN4CCN(C)CC4)cc32)sc1C(N)=O)c1ccccc1C(F)(F)F [GSK-461364] | 8.2073% | 127.3% | 14.2355% | 96.4779% | 35.9092% | 141.481%
O=C(O)c1ccc(-c2c[nH]c3ncc(-c4ccccc4)cc23)cc1C1CCCC1 [GSK-650394] | 92.5027% | 110.19% | 112.026% | 70.7781% | 93.9419% | 129.576%
CCn1cc(-c2ccnc3[nH]c(-c4cccc(CN(C)C)c4)cc23)c(-c2ccc(NC(=O)N(C)C)cc2)n1 [GSK-1070916] | 8.589% | 116.692% | 13.7383% | 103.854% | 9.494% | 207.056%
COc1ccc(COc2ccc(Cc3cnc(N)nc3N)cc2OC)cc1 [GW632580X] | 84.8428% | 83.7807% | 144.194% | 102.086% | 200.298% | 84.9331%
COc1cc2ncn(-c3cc(OCc4ccccc4C(F)(F)F)c(C(N)=O)s3)c2cc1OC [GW843682X] | 4.781% | 182.458% | 3.29% | 110.017% | 89.1479% | 152.214%
CCOc1cc2ncc(C#N)c(Nc3ccc(OCc4cccc(F)c4)c(Cl)c3)c2cc1NC(=O)/C=C/CN(C)C [HKI-357] | 16.8896% | 39.6819% | 38.7389% | 28.7857% | 50.6947% | 47.1207%
CCN1CCN(c2ccc(Nc3cc(N(C)C(=O)Nc4c(Cl)c(OC)cc(OC)c4Cl)ncn3)cc2)CC1 [INFIGRATINIB] | 0.6967% | 125.024% | 55.6946% | 110.833% | 101.232% | 52.242%
Cc1c(Oc2ccc(F)cc2)c(OC(C)C)nn1-c1ccc(C2CC2)cn1 [IPP/CNRS-A019] | 92.46% | 90.9232% | 67.4569% | 79.6967% | 91.0165% | 118.396%
COCCc1ccc(-c2c(C)nc3c(N4CCOCC4)ccnn23)cn1 [JNJ-42396302] | 121.378% | 128.188% | 94.533% | 84.3411% | 126.017% | 102.271%
COc1nc2ccc([C@@](O)(c3ccccc3)C3CCN(C(C)=O)CC3)cc2c(Cl)c1Cc1ccc(-n2cccn2)cc1 [JNJ-54119936] | 97.0001% | 121.742% | 99.4009% | 84.202% | 65.101% | 118.395%
CC(=O)Nc1ncc(CN2CCC[C@H](Cc3cc(C)nc(C)c3)C2)s1 [JNJ-65355394] | 116.935% | 172.928% | 108.182% | 61.6526% | 88.5022% | 103.797%
CC(=O)Nc1nc(CN2CCC[C@H](Cc3cc(C)nc(C)c3)C2)cs1 [JNJ-73924149] | 82.0789% | 131.954% | 104.416% | 83.6177% | 90.3874% | 105.251%
N#CN1CC[C@@H](C(=O)Nc2nc3c(s2)CN(C(=O)CN=[N+]=[N-])CC3)C1 [JYQ88] | 72.1963% | 58.5555% | 68.7487% | 88.1605% | 64.1943% | 84.2967%
CNC(=N)NCCC[C@H](NC(=O)[C@H](CC(C)C)NC(=O)NNC(=O)[C@H](Cc1ccccc1)NC(=O)[C@H](CO)NC(=O)[C@H](CC(N)=O)NC(=O)[C@@H](Cc1ccncc1)NC(=O)[C@H](N)Cc1ccc(O)cc1)C(=O)N[C@@H](Cc1ccccc1)C(N)=O [KISS1-305] (H-[dY][d4Pal]NSF[azaGly]L[Arg(Me)]F-NH2) | 113.14% | 104.585% | 102.723% | 96.9932% | 118.72% | 125.679%
CNC(=N)NCCC[C@H](NC(=O)[C@H](CC(C)C)NC(=O)NNC(=O)[C@H](Cc1ccccc1)NC(=O)[C@H](CO)NC(=O)[C@H](CC(N)=O)NC(=O)[C@@H](Cc1cccnc1)NC(=O)[C@H](N)Cc1ccc(O)cc1)C(=O)NCC(N)=O [KISS1-543] (H-[dY][d3Pal]NSF[azaGly]L[Arg(Me)]G-NH2) | 93.1752% | 90.9674% | 105.115% | 104.622% | 101.104% | 120.489%
C[C@]1(O)C[C@@H](c2nc(-c3ccc4ccc(-c5ccccc5)nc4c3)c3c(N)nccn32)C1 [LINSITINIB] | 53.0716% | 100.619% | 56.8923% | 65.041% | 60.6188% | 65.9185%
O=C(NOC[C@H](O)CO)c1ccc(F)c(F)c1Nc1ccc(I)cc1F [MIRDAMETINIB] | 8.8965% | 49.9042% | 7.045% | 23.0385% | 3.902% | 83.5811%
CCS(=O)(=O)Nc1ccc(Oc2ccc(F)cc2F)c(-c2cn(C)c(=O)c3[nH]ccc23)c1 [MIVEBRESIB] | 13.1828% | 272.686% | 15.6468% | 169.821% | 5.758% | 64.2458%
CN([C@@H]1CCc2c(CC(=O)O)c3ccccc3n2C1)S(=O)(=O)c1ccc(F)cc1 [MK-7246] | 70.9731% | 124.085% | 114.74% | 112.48% | 94.6909% | 109.932%
C[C@@H]1CN(c2cc(-c3nn(C)c4ccc(OC5(C)CC5)cc34)ncn2)C[C@H](C)O1 [MLi-2-NC] | 55.8067% | 87.1439% | 144.766% | 104.291% | 112.711% | 86.6644%
CC(=O)c1c(NS(C)(=O)=O)c2cc(-c3ccc(Cl)cc3)c(-c3ccc(Cl)cc3Cl)nc2n(C)c1=O [MRL-CB1-NC] | 117.339% | 76.9916% | 112.083% | 107.66% | 159.821% | 122.581%
